Source: patent US12214036B2, “Combination therapy comprising AXL/MER and PD-1/PD-L1 inhibitors” (Incyte Corporation, priority 2020, dated 2025)

Molecular target: T1, MER (Homo sapiens, UniProt Q12866)
T1 sequence (Q12866 21-999): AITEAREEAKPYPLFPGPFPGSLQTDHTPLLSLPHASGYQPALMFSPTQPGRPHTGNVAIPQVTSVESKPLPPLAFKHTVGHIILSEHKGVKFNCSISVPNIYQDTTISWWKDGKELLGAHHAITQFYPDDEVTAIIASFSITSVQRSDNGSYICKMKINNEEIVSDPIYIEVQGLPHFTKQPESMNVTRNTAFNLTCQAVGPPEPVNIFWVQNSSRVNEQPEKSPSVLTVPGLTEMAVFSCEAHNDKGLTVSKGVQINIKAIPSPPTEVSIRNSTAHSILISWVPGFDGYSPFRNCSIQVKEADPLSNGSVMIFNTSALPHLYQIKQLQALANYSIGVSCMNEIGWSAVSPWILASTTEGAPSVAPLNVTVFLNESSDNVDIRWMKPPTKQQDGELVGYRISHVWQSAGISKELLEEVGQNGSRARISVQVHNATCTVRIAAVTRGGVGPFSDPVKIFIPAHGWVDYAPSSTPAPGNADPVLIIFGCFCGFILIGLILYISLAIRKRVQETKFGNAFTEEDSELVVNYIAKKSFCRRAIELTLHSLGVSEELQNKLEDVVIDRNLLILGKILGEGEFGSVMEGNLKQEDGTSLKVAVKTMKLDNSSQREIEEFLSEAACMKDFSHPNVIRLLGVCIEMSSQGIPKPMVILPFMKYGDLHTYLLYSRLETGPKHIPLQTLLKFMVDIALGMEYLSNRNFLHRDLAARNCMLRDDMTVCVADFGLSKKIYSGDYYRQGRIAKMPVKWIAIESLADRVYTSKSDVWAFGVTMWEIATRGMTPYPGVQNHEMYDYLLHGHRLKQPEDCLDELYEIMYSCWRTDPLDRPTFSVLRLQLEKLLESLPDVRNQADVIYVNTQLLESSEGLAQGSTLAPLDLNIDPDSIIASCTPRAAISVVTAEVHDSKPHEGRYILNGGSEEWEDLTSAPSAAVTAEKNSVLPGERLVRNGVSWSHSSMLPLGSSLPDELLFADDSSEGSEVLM
Experiment: Inhibition of MER kinase activity in primary macrophages (Western blot)
Assay type: cell-based
Details: primary macrophages from human PBMCs, 2 hours pretreatment, MAB8912 stimulation, N=2 (FIG. 4); read-out: IC50, pMER inhibition
Protocol: The ability of Compound 1 to modulate the activity of MER kinase in macrophages was evaluated.
Human peripheral blood mononuclear cells (PBMCs) were separated using Ficoll-Paque density gradient centrifugation and any remaining red blood cells (RBC) were lysed using 1×RBC Lysis Buffer (Cell Signaling Technology) for 5 minutes at room temperature. The PBMCs were washed with PBS before being enriched for monocytes using CD14 microbeads positive selection separation following the manufacturer's protocol as specified (AutoMacs Pro, Miltenyi Biotec, Bergisch Gladbach, Germany). […]
Macrophages were allowed to thaw on ice before being lysed with 250 μL/well of 1× Lysis Buffer (Cell Signaling Technology; #9803) and Halt protease and phosphatase inhibitors (ThermoFisher Scientific) for 1 hour at 4° C. […] Protein lysates were quantified using BCA Protein Assay Kit (Pierce, ThermoFisher Scientific; #23225). […] The membranes were washed again before the bands were detected with SuperSignal West Dura Extended Duration Chemiluminescent substrate (ThermoFisher Scientific) and were visualized using the Fluorochem M Digital Imager (Protein Simple, San Jose, Calif.).

CC(C)C(=O)N1CCC(c2cc(-c3ccc(NC(=O)c4cn(C(C)C)c(=O)n(-c5ccccn5)c4=O)cc3)c3c(N)ncnn23)CC1 [Compound 1, N-(4-(4-Amino-7-(1-isobutyrylpiperidin-4-yl)pyrrolo[1,2-f][1,2,4]triazin-5-yl)phenyl)-1-isopropyl-2,4-dioxo-3-(pyridin-2-yl)-1,2,3,4-tetrahydropyrimidine-5-carboxamide]
IC50: 1.6 ± 0.4 nM
